Data on 5 molecules can be found in US20250019335A1, “NOVEL QUINIZARIN DERIVATIVE AND PREPARATION METHOD THEREOF” (BENOBIO CO., LTD., priority 2021, published 2025).

For one experiment, the target named is T1, BRD2(BD2) (Homo sapiens, UniProt P25440).
T1 construct: a mixture of 100 nM GST BRD2 (BD1, BD2, BD1+BD2) and 100 nM biotinylated acetyl histone H4
Description: Binding inhibition ability test for BRD2 protein (AlphaScreen, GST BRD2 / biotinylated acetyl histone H4 peptide). As to conditions: 100 nM GST BRD2, 100 nM biotinylated acetyl histone H4 (Lys5, 8, 12, 16) peptide, Alpha Screen. Here is the method: To confirm a binding inhibitory effect of a quinizarin derivative of the present disclosure on a BRD2 protein among BET proteins, the following experiment was performed.
First, a compound was diluted in 1:5 subdilution in an assay buffer from a 10 mM stock in dimethyl sulfoxide (DMSO) in a white Optiplate.
Then, a mixture of 100 nM GST BRD2 (BD1, BD2, BD1+BD2) and 100 nM biotinylated acetyl histone H4 (Lys5, 8, 12, 16) peptides was added to the diluent, and then each sample was shaking-cultured in the dark at 300 rpm for 30 minutes at room temperature.
Thereafter, signals were measured with a PerkinElmer Envision HTS Multilabel Reader using a PerkinElmer Alpha Screen protocol.
In general terms: Alpha assays give light when donor and acceptor beads are brought close together.

The subject of a further experiment is FAS. Description: Expression of liposynthesis factor FAS in palmitic acid-treated HepG2 cells (RT-PCR). The conditions noted are these: pretreated 1 μM to 10 μM, 100 μM palmitic acid 24 hours. The experiment is classed as cell-based, human. On the procedure: (§1) HepG2 cell lines, human liver epithelial cells, were incubated, pretreated with quinizarin and a substance of Example 2 (BBC0504) at concentrations of 1 μM to 10 μM, and treated with 100 μM palmitic acid (PA) for 24 hours to induce fatty liver at a cellular level. After 24 hours, the expression of lipogenesis-related genes SREBP-1 and FAS in cells in each sample was confirmed using RT-PCR. Each sample was added with a trizol reagent to extract total RNA, and the concentration was confirmed using a spectrophotometer. To synthesize cDNA for each gene, RT-PCR reaction was performed using primers targeting the SREBP-1 and FAS genes. β-actin was used as a control group, and after the reaction was completed, the detected cDNA product was confirmed by electrophoresis on a 1.0% agarose gel.
FIG. 14 illustrates a result of confirming FAS expression after treating fatty liver-induced cells with a quinizarin derivative at each concentration according to an embodiment of the present disclosure.

Another experiment deals with HepG2 cells. Description: Lipogenesis inhibition in palmitic acid-induced fatty liver HepG2 cells (Oil red O staining). The experiment is classed as cell-based, human. The conditions noted are these: pretreated 1 μM to 10 μM, 100 μM palmitic acid 24 hours. Here is the method: HepG2 cell lines, human liver epithelial cells, were incubated, pretreated with quinizarin and a substance of Example 2 (BBC0504) at concentrations of 1 μM to 10 μM, and treated with 100 μM palmitic acid (PA) for 24 hours to induce fatty liver at a cellular level. After 24 hours, the cells in each sample were immobilized for 1 hour with a phosphate-buffered salt solution containing 7% formaldehyde, washed with PBS, and stained with a 99% isopropanol solution containing 1% Oil red O for 10 minutes. The differentiation degree of adipocytes was measured by dissolving the stained Oil red O in isopropanol and measuring the absorbance at 510 nm.
Referring to FIG. 11, HepG2 cells, which are human liver epithelial cells, were treated with palmitic acid to induce fatty liver, and the ability to inhibit lipogenesis was confirmed at each concentration in Example 2.

Another experiment concerns SREBP-1. Description: Expression of liposynthesis factor SREBP-1 in palmitic acid-treated HepG2 cells (RT-PCR). The experiment is classed as cell-based, human. The conditions noted are these: pretreated 1 μM to 10 μM, 100 μM palmitic acid 24 hours. On the procedure: as §1
FIG. 13 illustrates a result of confirming SREBP-1 expression after treating fatty liver-induced cells for each concentration with a quinizarin derivative according to an embodiment of the present disclosure.

SMILES strings stand for the structures.

T1 sequence (P25440 344-453 limits assumed, species assumed): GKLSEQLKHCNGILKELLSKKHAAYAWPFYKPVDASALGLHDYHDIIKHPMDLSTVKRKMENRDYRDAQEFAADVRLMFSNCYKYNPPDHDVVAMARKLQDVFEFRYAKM

In the case of `O=C1c2ccccc2C(=O)c2c3c(cc(O)c21)OCCO3` [Example 5], the IC50 at BRD2(BD2) came out at 2.73 µM. That is a single-digit micromolar value.
Consider `O=C1c2ccc(-c3ccc(O)c(O)c3)cc2C(=O)c2c(O)ccc(O)c21` [Example 2], for which, at BRD2(BD2), the IC50 is 4.44 µM. Moreover, the FAS gene expression entry in the experiment with FAS is “reduced depending on a concentration”. Also, the “lipogenesis amount (Oil red O absorbance at 510 nm)” value with HepG2 cells was “reduced in a concentration-dependent manner”. Also, the SREBP-1 gene expression result in the experiment with SREBP-1 is “reduced depending on a concentration”.
On to `O=C1c2ccccc2C(=O)c2c(O)cc(-c3ccc(O)c(O)c3)cc21` [Example 3], for which the IC50 at BRD2(BD2) came to 1.75 µM.
The same measure, in the same setting: in the case of `O=C1c2ccccc2C(=O)c2c(OC3COC3)ccc(O)c21` [Example 4] it was 3.12 µM.
At BRD2(BD2), `O=C1c2ccccc2C(=O)c2c(O)c(-c3ccc(O)c(O)c3)cc(O)c21` [Example 1] displayed an IC50 of 1.74 µM.

In general, IC50 refers to the concentration that gives 50% inhibition.
